Laboratory results published in article PMC6374431, “NMR Analysis on Molecular Interaction of Lignin with Amino Acid Residues of Carbohydrate-Binding Module from Trichoderma reesei Cel7A” (Scientific Reports, 2019).

Target: T1, TrCBM1 (CBM1 of TrCel7A, cellobiohydrolase I) (Trichoderma reesei, UniProt P62694)
T1 construct: gene cbh1; isolated C-terminal family 1 CBM (36 residues) plus residual residues at N- and C-termini from enterokinase and thrombin cleavage; His tag and GFP removed; E. coli BL21(DE3); 15N-labeled, mass 5255
T1 sequence (P62694 478-513): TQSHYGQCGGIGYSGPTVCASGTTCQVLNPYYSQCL
Experiment: NMR titration, chemical shift perturbation (1H-15N SOFAST-HMQC)
Type: binding
Settings: 100 μM 15N-TrCBM1, 100 mM citric acid buffer pH 5.0, 10% D2O, 298 K; cellohexaose 700-5600 μM; flat plane surface and cleft

## OC[C@H]1O[C@@H](O[C@H]2[C@H](O)[C@@H](O)[C@H](O[C@H]3[C@H](O)[C@@H](O)[C@H](O[C@H]4[C@H](O)[C@@H](O)[C@H](O[C@H]5[C@H](O)[C@@H](O)[C@H](O[C@H]6[C@H](O)[C@@H](O)C(O)O[C@@H]6CO)O[C@@H]5CO)O[C@@H]4CO)O[C@@H]3CO)O[C@@H]2CO)[C@H](O)[C@@H](O)[C@@H]1O (stereo partly shown) [cellohexaose]
  Δδ (CSP): The incremental addition of cellohexaose continuously increased Δδ.
